The nature of data set [1]: Dynamic solubility in FaSSIF (fasted state simulated intestinal fluids, pH=6.5), HPLC. It counts as physicochemical. The settings on record: for Solubility relative to existing crystalline Form 2: FaSSIF, 1 hour. As for the experimental part: (§1) The HPLC method parameters for solubility test in the present disclosure are as follows:
(§2) Saturated solutions of Form I, Form II, Form III, Form VII and the existing crystalline Form 2 in SGF (Simulated gastric fluids) were prepared. Saturated solutions of Form II, Form III, Form VII, Form VIII and the existing crystalline Form 2 in FaSSIF (Fasted state simulated intestinal fluids, pH=6.5) were prepared. After equilibrated for 1 hour, concentrations of the saturated solutions were measured by High Performance Liquid Chromatography (HPLC).

Data set [2] in a line: Particle size distribution assessment (laser particle size analyzer). It counts as physicochemical. The settings on record: for D10 / D50 / D90 / MV (average particle size based on volume): wet method, Isopar G. From the text: The result of particle size distribution (PSD) in the present disclosure was acquired by laser particle size analyzer with S3500 model from Microtrac Company. The Microtrac S3500 is equipped with a SDC (Sample Delivery Controller) sampling system. This experiment uses a wet method and the dispersion medium is Isopar G. The method and parameters of the laser particle size analyzer are as follows: [table] Certain amount of Form I, Form V, Form VIII and existing crystalline Form 2 were taken for particle size distribution test, and the results were shown in Table 29.

Data set [3] in a line: Mechanical stability assessment: manual grinding, XRPD. The format is physicochemical. The settings on record: ground manually for 5 minutes in mortar. As for the experimental part:
Solid sample of Form I, Form VI and the existing crystalline Form 2 were ground manually for 5 minutes in mortar. XRPD was applied to detect the crystalline form.

The nature of data set [4]: Morphology assessment by polarized light microscopy. The format is physicochemical. As for the experimental part: The existing crystalline Form 2 and Form I in the present disclosure were tested by polarized light microscopy. The PLM results of the Form 2 and Form I were shown in FIG. 48 and FIG. 49, respectively.
A short description of data set [5]: Dynamic solubility in SGF (simulated gastric fluids), HPLC. It counts as physicochemical. The following applies: for Solubility 1 hour: Media: SGF, equilibrated for 1 hour; for Solubility relative to existing crystalline Form 2: SGF, 1 hour. On the procedure:
as §1, §2

Data set [6] can be described thus: Hygroscopicity assessment by dynamic vapor sorption (DVS). The following applies: 25° C.; for Form change before and after DVS: XRPD. The format is physicochemical. As for the experimental part: Dynamic Vapor Sorption (DVS) is measured via a SMS (Surface Measurement Systems Ltd.) intrinsic DVS. Typical Parameters for DVS test are as follows: Temperature: 25° C. Gas and flow rate: N2, 200 mL/min dm/dt: 0.002%/min Relative Humidity (RH) range: 20% RH-95% RH-0% RH-95% RH Dynamic vapor sorption (DVS) was applied to test hygroscopicity of crystalline Form I with 13.8 mg of sample Form I at 25° C. The weight gains at each relative humidity were recorded in a cycle of 20%-95%-0%-95% RH. […] Dynamic vapor sorption (DVS) was applied to test hygroscopicity of Form VII with 11.5 mg of sample Form VII at 25° C. The weight gains at each relative humidity were recorded in a cycle of 0%-95%-0% RH.

Data set [7] is described as follows: Stability study: mixture of forms stirred in solvent systems with different water activity, residual solid by XRPD. It counts as physicochemical. The following applies: high water activity (high humidity, ≥50% RH). The text has this: The mixture of existing crystalline Form 2 disclosed in CN102112483A, Form I and Form II was stirred in several solvent systems with different water activity (aw).
It should be noted that the solvent systems for different water activity (aw) include but not limit to H2O and IPA. The same conclusion could be drawn with this experiment in other solvent systems suitable for the preparation of different water activity (aw).

A short description of data set [8]: Stability study: storage at 25° C./60% RH and 40° C./75% RH, XRPD. It counts as physicochemical. The settings on record: for Stability on storage: 25° C./60% RH and 40° C./75% RH for 3 months; for Solid Form after storage: 3 months. As for the experimental part: Form I, Form II, Form III and Form VI were stored under different conditions of 25° C./60% RH and 40° C./75% RH for 3 months. XRPD was applied to detect the crystalline forms. The XRPD overlay of Form I, Form II, Form III and Form VI before and after stored under above two conditions were shown in FIG. 44, FIG. 45, FIG. 46 and FIG. 47, respectively.

For a further data set, the system named is type 1 diabetics. The settings on record: Phase 2, type 1 diabetics, compared with placebo; cited from earlier work.
Data set [9] concerns people with type 2 diabetes. The following applies: Phase 2, type 2 diabetes, including those with renal impairment; cited from earlier work.
[10] abbreviates: Table 27, head prints Media:SGF, text says FaSSIF pH=6.5, equilibrated for 1 hour.

The values below come from patent publication US10626135B2, “Crystal forms of sodium-glucose co-transporter inhibitor, processes for preparation and use thereof” (CRYSTAL PHARMACEUTICAL (SUZHOU) CO., LTD., priority 2016, dated 2020).

In brackets after ≈: the same amount, converted by molar mass. Entries after “also recorded” stand apart in the source; their conditions may differ.

One may read the solubility as how much of the substance goes into solution per volume. The low end stands for a poorly soluble substance, the high end for a readily soluble substance.

On to `CCOc1ccc(Cc2cc([C@@H]3O[C@H](SC)[C@@H](O)[C@H](O)[C@H]3O)ccc2Cl)cc1` [Form 2, (2S,3R,4R,5S,6R)-2-(4-chloro-3-(4-ethoxybenzyl)phenyl)-6-(methylthio)tetrahydro-2H-pyran-3,4,5-triol, reference compound], for which the “Solubility 1 hour” value in data set [1] (setting [10]) is listed as 0.13 mg/mL (≈ 306 µM). Also, in data set [2], the “Particle size distribution (description)” value was “wide and bimodal”; the D10 is recorded as 2.32 μm; the D50 is recorded as 45.00 μm; the D90 was determined as 144.4 μm. In data set [2], the “MV (average particle size based on volume)” value (“MV” below) was determined as 60.43 μm. In addition, in [3], the Crystallinity entry was “Decreased (Mainly”, the Final form result was “Form 2” and the Mechanical stability result is reported as “poor mechanical stability”. Besides, in [4], the “Crystal shape (PLM)” value was “needle-like shape”. In [5], the “Solubility 1 hour” value is recorded as 0.06 mg/mL (≈ 141 µM).

With `CCOc1ccc(Cc2cc([C@@H]3O[C@H](SC)[C@@H](O)[C@H](O)[C@H]3O)ccc2Cl)cc1` [Form II, (2S,3R,4R,5S,6R)-2-(4-chloro-3-(4-ethoxybenzyl)phenyl)-6-(methylthio)tetrahydro-2H-pyran-3,4,5-triol], the solubility at 1 h in [1] (fasted state simulated intestinal fluid (FaSSIF), pH 6.5, fassif, thermodynamic from solid, Table 27, head prints Media:SGF, text says FaSSIF pH=6.5, equilibrated for 1 hour) is 150 µg/mL (≈ 353 µM). In [6] (cycle 20%-95%-0%-95% RH), the “Weight gain under 80% RH” value was 2.46%; the “Form change before and after DVS” value is reported as “substantially unchanged; also recorded: No form change”. Moreover, in data set [7], the “Stability in high water activity environment” value is given as “more stable than Form 2”. For the same compound, the “Solubility 1 hour” value in data set [5] is listed as 0.08 mg/mL (≈ 188 µM). In data set [8], the Stability on storage entry is given as “good stability”. The “Solid Form after storage” value in data set [8] (25° C./60% RH) is recorded as “Form II (the middle”. In [8] (40° C./75% RH), the “Solid Form after storage” value was “Form II (the bottom”.

With `CCOc1ccc(Cc2cc([C@@H]3O[C@H](SC)[C@@H](O)[C@H](O)[C@H]3O)ccc2Cl)cc1` [Form III, (2S,3R,4R,5S,6R)-2-(4-chloro-3-(4-ethoxybenzyl)phenyl)-6-(methylthio)tetrahydro-2H-pyran-3,4,5-triol], the “Solubility relative to existing crystalline Form 2” value in [1] is listed as 1.4 times; in data set [5], 2.2 times. Also, the “Solubility 1 hour” value in [1] (setting [10]) was 0.18 mg/mL (≈ 424 µM); in [5], 0.13 mg/mL (≈ 306 µM). For the same compound, the “Weight gain under 80% RH” value in data set [6] (cycle 20%-95%-0%-95% RH) is 0.13%. The “Form change before and after DVS” value in data set [6] (cycle 20%-95%-0%-95% RH) was “substantially unchanged; also recorded: No form change”. In data set [8], the Stability on storage result is given as “good stability”. Further, the “Solid Form after storage” value in data set [8] (25° C./60% RH) is “Form III (the middle”; in [8] (40° C./75% RH), “Form III (the bottom”.

Consider `CCOc1ccc(Cc2cc([C@@H]3O[C@H](SC)[C@@H](O)[C@H](O)[C@H]3O)ccc2Cl)cc1` [Form V, (2S,3R,4R,5S,6R)-2-(4-chloro-3-(4-ethoxybenzyl)phenyl)-6-(methylthio)tetrahydro-2H-pyran-3,4,5-triol], for which, in [2], the “Particle size distribution (description)” value is “narrow and normal”; the D10 is 4.38 μm; the D50 came to 18.81 μm; the D90 is 72.98 μm. Also, the “MV” value in data set [2] is 32.70 μm.

Turning to `CCOc1ccc(Cc2cc([C@@H]3O[C@H](SC)[C@@H](O)[C@H](O)[C@H]3O)ccc2Cl)cc1` [Form VI, (2S,3R,4R,5S,6R)-2-(4-chloro-3-(4-ethoxybenzyl)phenyl)-6-(methylthio)tetrahydro-2H-pyran-3,4,5-triol], in data set [6] (cycle 20%-95%-0%-95% RH), the “Weight gain under 80% RH” value stood at 1.80%; the “Form change before and after DVS” value is “substantially unchanged; also recorded: No form change”. In [3], the Crystallinity entry was “Decreased (Slightly”, the Final form result was “no crystalline form change; also recorded: Form VI” and the Mechanical stability result is on record as “better mechanical stability”. In addition, the Stability on storage entry in data set [8] is listed as “good stability”. Moreover, in data set [8] (25° C./60% RH), the “Solid Form after storage” value is “Form VI (the middle”. Also, in [8] (40° C./75% RH), the “Solid Form after storage” value is on record as “Form VI (the bottom”.

Regarding `CCOc1ccc(Cc2cc([C@@H]3O[C@H](SC)[C@@H](O)[C@H](O)[C@H]3O)ccc2Cl)cc1` [Form VII, (2S,3R,4R,5S,6R)-2-(4-chloro-3-(4-ethoxybenzyl)phenyl)-6-(methylthio)tetrahydro-2H-pyran-3,4,5-triol], the “Solubility relative to existing crystalline Form 2” value in data set [1] is on record as 1.5 times. Further, the “Solubility 1 hour” value in data set [1] (setting [10]) is recorded as 0.20 mg/mL (≈ 471 µM). In [6] (cycle 0%-95%-0% RH), the “Weight gain under 80% RH” value came to 1.08%; the “Form change before and after DVS” value is “substantially unchanged; also recorded: No form change”. Besides, in data set [4], the “Crystal shape (PLM)” value was “irregular massive shape”. Also, in data set [5], the “Solubility 1 hour” value was 0.15 mg/mL (≈ 353 µM) and the “Solubility relative to existing crystalline Form 2” value is reported as 2.5 times.

Take `CCOc1ccc(Cc2cc([C@@H]3O[C@H](SC)[C@@H](O)[C@H](O)[C@H]3O)ccc2Cl)cc1` [Form VIII, (2S,3R,4R,5S,6R)-2-(4-chloro-3-(4-ethoxybenzyl)phenyl)-6-(methylthio)tetrahydro-2H-pyran-3,4,5-triol]: the “Solubility relative to existing crystalline Form 2” value in data set [1] is recorded as 1.4 times. Also, the “Solubility 1 hour” value in data set [1] (setting [10]) is recorded as 0.18 mg/mL (≈ 424 µM). In [2], the “Particle size distribution (description)” value is “narrow and normal”; the D10 worked out at 7.30 μm; the D50 came out at 36.60 μm; the D90 is reported as 112.4 μm. Moreover, the “MV” value in data set [2] worked out at 51.93 μm. For the same compound, in data set [6] (cycle 0%-95%-0% RH), the “Weight gain under 80% RH” value was 0.60%; the “Form change before and after DVS” value is recorded as “substantially unchanged; also recorded: No form change”.

As for `CCOc1ccc(Cc2cc([C@@H]3O[C@H](SC)[C@@H](O)[C@H](O)[C@H]3O)ccc2Cl)cc1` [Sotagliflozin, (2S,3R,4R,5S,6R)-2-(4-chloro-3-(4-ethoxybenzyl)phenyl)-6-(methylthio)tetrahydro-2H-pyran-3,4,5-triol], in the data set with type 1 diabetics, the Blood sugar result is “reduction of blood sugar”, the Glycaemic variability entry is “improvement in glycaemic variability” and the Meal-time insulin dose entry is given as “reduced meal-time insulin dose”. In data set [9], the Blood pressure entry is “blood pressure improvements”, the Blood sugar entry is “lowering of blood sugar” and the Weight entry was “weight loss”.
